Experimental data from US8247612B2, “Organic sulfur compound and its use for controlling harmful arthropod” (Sumitomo Chemical Company, Limited, priority 2007, dated 2012).

Key:
Type in all cases: in vivo
Blattalla germanica = assay: Test Example 3: treated filter paper with sucrose bait, death rate of Blattalla germanica; conditions: 144 h; 500 ppm test solution, 0.7 ml on filter paper; 2 male imagoes; after 6 days
Procedure: (§1) Preparations of the present compounds (2), (3), (5), (6), (10), (11), (12), (14), (15), (16), (17), (19), (20), (24), (25), (26), (29), (30) and (31) obtained according to Formulation Example 36 were diluted so that the active ingredient concentration was 500 ppm to obtain test solutions.
(§2) A filter paper having a diameter of 5.5 cm was spread on the bottom of a polyethylene cup having a diameter of 5.5 cm and 0.7 ml of the test solution was added dropwise onto the filter paper. As a bait 30 mg of sucrose was uniformly placed on the filter paper. Into the polyethylene cup, 2 male imagoes of Blattalla germanica were released and the cup was sealed with a lid. After 6 days, the number of surviving Blattalla germanica was examined and the death rate of the pest was calculated.
As a result, in treatments with the present compounds (2), (3), (5), (6), (10), (11), (12), (14), (15), (16), (17), (19), (20), (24), (25), (26), (29), (30) and (31), the death rate of the pest was 100%.

[1] = tested on: Haemaphysalis longicornis; assay: Test Example 5: treated filter paper pouch, death rate of ticks; conditions: filter paper treated with 100 mg/m^2; non-blood-sucking nymphal ticks, 10 ticks/group; after 2 days
Procedure: Five milligrams of any one of the present compounds (3), (10), (14), (15), (16) and (17) was dissolved in 10 mL of acetone. One milliliter of the acetone solution was uniformly applied on one side of a filter paper (TOYO No. 2; 5×10 cm), so that the filter paper was treated with 100 mg/m^2 of the present compound. After drying, the filter paper was folded in two and its edges were clipped to make a pouch. Non-blood-sucking nymphal ticks (Haemaphysalis longicornis, 10 ticks/group) were put into the pouch, and the pouch was sealed with clips. After 2 days, the number of surviving ticks was examined and the death rate was calculated. As a result, in treatments with the present compounds (3), (10), (14), (15), (16) and (17), the death rate of the tick was 90%.

Culex pipiens pallens = assay: Test Example 4: larvae in treated water, death rate of Culex pipiens pallens; conditions: 24 h, active ingredient concentration 3.5 ppm in water, 20 last-instar larvae, after one day
Procedure: Preparations of the present compounds (1), (2), (3), (4), (5), (6), (9), (10), (11), (12), (14), (15), (16), (17), (19), (20), (22), (23), (24), (26), (27), (28), (29), (30) and (31) obtained according to Formulation Example 36 were diluted so that the active ingredient concentration was 500 ppm to obtain test solutions. To 100 mL of ion-exchanged water, 0.7 ml of the test solution was added (active ingredient concentration: 3.5 ppm). Into the solution, 20 last-instar larvae of Culex pipiens pallens were released. After one day, the number of surviving Culex pipiens pallens was examined and the death rate of the pest was calculated. As a result, in treatments with the present compounds (1), (2), (3), (4), (5), (6), (9), (10), (11), (12), (14), (15), (16), (17), (19), (20), (22), (23), (24), (26), (27), (28), (29), (30) and (31), the death rate of the pest was 90% or more.

Musca domestica = assay: Test Example 2: treated filter paper with sucrose bait, death rate of Musca domestica; conditions: 500 ppm test solution, 0.7 ml on filter paper, 10 female imagoes, after 24 hours
Procedure: as §1, with “(6), (9),” for “(6),”, “(12), (13),” for “(12),”, “(26), (28),” for “(26),”
as §2, with “10 female” for “2 male”, “Musca domestica” for “Blattalla germanica”, “24 hours,” for “6 days,”
As a result, in treatments with the present compounds (2), (3), (5), (6), (9), (10), (11), (12), (13), (14), (15), (16), (17), (19), (20), (24), (25), (26), (28), (29), (30) and (31), the death rate of the pest was 70% or more.

Compound	pest or weed control at 500 ppm (Blattalla germanica)	death rate of the tick [1]	pest or weed control at 3.5 ppm (Culex pipiens pallens)	pest or weed control at 500 ppm (Musca domestica)
CCC(CCC(F)(C#N)S(=O)(=O)CCC(F)(F)F)C(F)(F)F (stereo not drawn) [present compound (15), 2-fluoro-5-(trifluoromethyl)-2-(3,3,3-trifluoropropylsulfonyl)heptanenitrile]	100%	90%	≥ 90%	≥ 70%
CC(CCC(C#N)S(=O)(=O)CCC(F)(F)F)C(F)(F)F (stereo not drawn) [present compound (10), 6,6,6-trifluoro-5-methyl-2-(3,3,3-trifluoropropylsulfonyl)hexanenitrile]	100%	90%	≥ 90%	≥ 70%
CCC(CCC(C#N)S(=O)(=O)CCC(F)(F)F)C(F)(F)F (stereo not drawn) [present compound (14), 5-(trifluoromethyl)-2-(3,3,3-trifluoropropylsulfonyl)heptanenitrile]	100%	90%	≥ 90%	≥ 70%
CCC(CCC(Cl)(C#N)S(=O)(=O)CCC(F)(F)F)C(F)(F)F (stereo not drawn) [present compound (16), 2-chloro-5-(trifluoromethyl)-2-(3,3,3-trifluoropropylsulfonyl)heptanenitrile]	100%	90%	≥ 90%	≥ 70%
CC(CCC(Cl)(C(N)=O)S(=O)(=O)CCC(F)(F)F)C(F)(F)F (stereo not drawn) [present compound (3), 2-chloro-6,6,6-trifluoro-5-methyl-2-(3,3,3-trifluoropropylsulfonyl)hexanamide]	100%	90%	≥ 90%	≥ 70%
CCC(CCC(C)(C#N)S(=O)(=O)CCC(F)(F)F)C(F)(F)F (stereo not drawn) [present compound (17), 2-methyl-5-(trifluoromethyl)-2-(3,3,3-trifluoropropylsulfonyl)heptanenitrile]	100%	90%	≥ 90%	≥ 70%
